According to patent publication US9266892B2, “Fused pyrazoles as FGFR inhibitors” (Incyte Corporation, priority 2012, dated 2016):

Assays:
Assay type in all cases: biochemical
[1] = target: T1, FGFR3 (Homo sapiens, UniProt P22607); test: FGFR Enzymatic Assay (FRET peptide phosphorylation), FGFR3; conditions: ATP 140 μM, 25° C. for 1 hr
T1 construct: purchased Millipore
Summary of the method: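 FGFR3 in 50 mM HEPES pH 7.5, 10 mM […]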

[2] = target: T2, FGFR1 (Homo sapiens, UniProt P11362); test: FGFR Enzymatic Assay (FRET peptide phosphorylation), FGFR1; conditions: FGFR1 0.02 nM, ATP 210 μM
T2 construct: purchased Millipore or Invitrogen
T2 sequence (P11362 22-822): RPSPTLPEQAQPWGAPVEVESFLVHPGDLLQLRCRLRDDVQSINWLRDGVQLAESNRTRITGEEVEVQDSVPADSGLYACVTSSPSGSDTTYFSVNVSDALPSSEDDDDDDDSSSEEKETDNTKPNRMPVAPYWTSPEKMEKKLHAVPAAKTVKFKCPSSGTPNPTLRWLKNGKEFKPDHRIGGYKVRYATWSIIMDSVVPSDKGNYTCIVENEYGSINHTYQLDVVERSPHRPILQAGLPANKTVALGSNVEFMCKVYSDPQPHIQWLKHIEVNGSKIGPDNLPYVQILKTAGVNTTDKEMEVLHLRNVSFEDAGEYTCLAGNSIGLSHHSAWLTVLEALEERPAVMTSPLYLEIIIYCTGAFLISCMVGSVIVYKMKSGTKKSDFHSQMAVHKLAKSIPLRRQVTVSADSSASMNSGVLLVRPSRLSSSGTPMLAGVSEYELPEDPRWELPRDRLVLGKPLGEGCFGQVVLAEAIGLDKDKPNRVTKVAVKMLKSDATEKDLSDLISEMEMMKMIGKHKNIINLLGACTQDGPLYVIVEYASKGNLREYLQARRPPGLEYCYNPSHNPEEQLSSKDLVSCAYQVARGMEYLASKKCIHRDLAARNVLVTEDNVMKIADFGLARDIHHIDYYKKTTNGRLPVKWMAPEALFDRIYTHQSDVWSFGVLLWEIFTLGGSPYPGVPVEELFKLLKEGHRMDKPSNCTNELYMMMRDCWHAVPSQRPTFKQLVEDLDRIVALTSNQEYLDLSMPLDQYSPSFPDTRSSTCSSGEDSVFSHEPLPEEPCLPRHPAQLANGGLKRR
Summary of the method: (§1)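 Human FGFR1 (0.02 nM) and FGFR2 (0.01 nM) were pre-incubated with compound for 5-10 min in HEPES buffer pH 7.5, then reacted at 25 °C for 1 hr with 500 nM biotinylated peptide and ATP (FGFR1 210 μM; FGFR2 100 μM). Phosphopeptide was detected by Eu-PY20/APC-streptavidin TR-FRET after EDTA quench. IC50 came from variable-slope sigmoidal fits.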

[3] = target: T3, FGFR2 (Homo sapiens, UniProt P21802); test: FGFR Enzymatic Assay (FRET peptide phosphorylation), FGFR2; conditions: FGFR2 0.01 nM, ATP 100 μM
T3 construct: purchased Millipore or Invitrogen
T3 sequence (P21802 22-821): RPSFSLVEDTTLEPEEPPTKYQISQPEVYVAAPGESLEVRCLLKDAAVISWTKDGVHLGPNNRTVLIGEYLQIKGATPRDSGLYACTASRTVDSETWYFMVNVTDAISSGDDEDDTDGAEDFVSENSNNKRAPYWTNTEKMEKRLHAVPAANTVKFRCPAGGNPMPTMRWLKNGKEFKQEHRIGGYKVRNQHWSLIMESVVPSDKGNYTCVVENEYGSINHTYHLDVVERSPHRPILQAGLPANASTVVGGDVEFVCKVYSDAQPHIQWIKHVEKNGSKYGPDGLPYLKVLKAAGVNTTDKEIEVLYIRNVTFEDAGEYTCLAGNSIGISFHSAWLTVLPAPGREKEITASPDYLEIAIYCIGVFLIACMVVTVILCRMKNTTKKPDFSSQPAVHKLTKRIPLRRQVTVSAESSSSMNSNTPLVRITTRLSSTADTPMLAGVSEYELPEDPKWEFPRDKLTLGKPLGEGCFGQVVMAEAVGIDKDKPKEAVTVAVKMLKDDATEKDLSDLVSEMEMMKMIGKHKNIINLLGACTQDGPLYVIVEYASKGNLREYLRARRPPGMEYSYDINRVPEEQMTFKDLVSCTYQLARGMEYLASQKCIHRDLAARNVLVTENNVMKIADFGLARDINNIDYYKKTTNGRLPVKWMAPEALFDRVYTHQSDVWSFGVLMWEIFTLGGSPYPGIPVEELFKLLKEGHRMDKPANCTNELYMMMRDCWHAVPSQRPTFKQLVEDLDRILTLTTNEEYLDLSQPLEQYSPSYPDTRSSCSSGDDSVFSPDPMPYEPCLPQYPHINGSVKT
Summary of the method: as §1

T1 sequence (P22607 23-806): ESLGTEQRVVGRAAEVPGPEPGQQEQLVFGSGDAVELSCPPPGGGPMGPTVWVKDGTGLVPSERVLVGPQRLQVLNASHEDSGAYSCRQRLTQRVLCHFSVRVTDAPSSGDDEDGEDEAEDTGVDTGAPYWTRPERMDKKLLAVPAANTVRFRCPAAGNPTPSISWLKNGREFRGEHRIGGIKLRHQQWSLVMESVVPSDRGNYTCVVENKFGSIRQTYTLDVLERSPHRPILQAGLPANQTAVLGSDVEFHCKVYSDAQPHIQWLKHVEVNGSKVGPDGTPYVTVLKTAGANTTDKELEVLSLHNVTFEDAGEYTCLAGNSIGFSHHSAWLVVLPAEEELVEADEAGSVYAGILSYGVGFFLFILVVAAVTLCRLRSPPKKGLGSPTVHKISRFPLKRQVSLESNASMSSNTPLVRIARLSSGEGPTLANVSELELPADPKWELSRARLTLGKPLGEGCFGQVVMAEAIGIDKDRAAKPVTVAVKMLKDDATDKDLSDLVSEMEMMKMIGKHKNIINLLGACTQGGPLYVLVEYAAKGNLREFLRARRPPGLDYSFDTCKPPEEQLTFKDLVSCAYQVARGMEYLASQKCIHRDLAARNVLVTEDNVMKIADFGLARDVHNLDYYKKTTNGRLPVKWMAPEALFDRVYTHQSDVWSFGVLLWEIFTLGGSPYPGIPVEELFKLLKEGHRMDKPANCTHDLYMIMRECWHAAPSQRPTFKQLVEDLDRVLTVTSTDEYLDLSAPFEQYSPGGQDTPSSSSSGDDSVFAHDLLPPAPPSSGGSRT

IC50 [1] | IC50 [2] | IC50 [3] | SMILES
< 100 nM | < 100 nM | 100 to 500 nM | COc1cc(OC)c(Cl)c(-c2cc3[nH]nc(-c4ccc5c(c4)N(C)C(=O)CO5)c3cn2)c1Cl [Example 31, 6-[6-(2,6-Dichloro-3,5-dimethoxyphenyl)-1H-pyrazolo[4,3-c]pyridin-3-yl]-4-methyl-2H-1,4-benzoxazin-3(4H)-one]
< 100 nM | < 100 nM | < 100 nM | COc1cc(OC)c(F)c(-c2cc3[nH]nc(-c4cnn(CCO)c4)c3cn2)c1F [Example 88, 2-{4-[6-(2,6-Difluoro-3,5-dimethoxyphenyl)-1H-pyrazolo[4,3-c]pyridin-3-yl]-1H-pyrazol-1-yl}ethanol]
< 100 nM | < 100 nM | < 100 nM | COc1cc(OC)c(F)c(-c2ncc3c(-c4ccc(OCCN(C)C)cc4)n[nH]c3n2)c1F [Example 20, 2-{4-[6-(2,6-Difluoro-3,5-dimethoxyphenyl)-1H-pyrazolo[3,4-d]pyrimidin-3-yl]phenoxy}-N,N-dimethylethanamine]
< 100 nM | < 100 nM | < 100 nM | COc1cc(OC)c(Cl)c(-c2cnc3c(-c4cnn(C)c4)n[nH]c3c2)c1Cl [Example 70, 6-(2,6-dichloro-3,5-dimethoxyphenyl)-3-(1-methyl-1H-pyrazol-4-yl)-1H-pyrazolo[4,3-b]pyridine]
< 100 nM | < 100 nM | < 100 nM | COc1cc(OC)c(F)c(-c2ncc3c(-c4ccc5c(c4)CN(C(C)C)C5=O)n[nH]c3n2)c1F [Example 78, 5-[6-(2,6-Difluoro-3,5-dimethoxyphenyl)-1H-pyrazolo[3,4-d]pyrimidin-3-yl]-2-isopropylisoindolin-1-one]
< 100 nM | < 100 nM | < 100 nM | COc1cc(OC)c(F)c(-c2ncc3c(-c4ccc5ncccc5c4)n[nH]c3n2)c1F [Example 94, 6-[6-(2,6-Difluoro-3,5-dimethoxyphenyl)-1H-pyrazolo[3,4-d]pyrimidin-3-yl]quinoline]
< 100 nM | < 100 nM | < 100 nM | CNC(=O)Cn1cc(-c2n[nH]c3cc(-c4c(Cl)c(OC)cc(OC)c4Cl)ncc23)cn1 [Example 36, 2-{4-[6-(2,6-Dichloro-3,5-dimethoxyphenyl)-1H-pyrazolo[4,3-c]pyridin-3-yl]-1H-pyrazol-1-yl}-N-methylacetamide]
< 100 nM | < 100 nM | < 100 nM | COc1cc(OC)c(Cl)c(-c2cc3[nH]nc(/C=C/c4cnn(CCO)c4)c3cn2)c1Cl [Example 50, 2-(4-{(E)-2-[6-(2,6-Dichloro-3,5-dimethoxyphenyl)-1H-pyrazolo[4,3-c]pyridin-3-yl]vinyl}-1H-pyrazol-1-yl)ethanol]
< 100 nM | < 100 nM | < 100 nM | COc1cc(OC)c(F)c(-c2cc3[nH]nc(-c4ccc5c(c4)CN(CCN(C)C)C5=O)c3cn2)c1F [Example 67, 5-[6-(2,6-Difluoro-3,5-dimethoxyphenyl)-1H-pyrazolo[4,3-c]pyridin-3-yl]-2-[2-(dimethylamino)ethyl]isoindolin-1-one]
< 100 nM | < 100 nM | < 100 nM | COc1cc(OC)c(Cl)c(-c2cc3[nH]nc(-c4cnn(C[C@H](C)O)c4)c3cn2)c1Cl [Example 51, (2S)-1-{4-[6-(2,6-Dichloro-3,5-dimethoxyphenyl)-1H-pyrazolo[4,3-c]pyridin-3-yl]-1H-pyrazol-1-yl}propan-2-ol]
< 100 nM | < 100 nM | < 100 nM | COc1cc(OC)c(F)c(-c2cc3[nH]nc(-c4ccc5c(c4)CN(C4CCN(C)CC4)C5=O)c3cn2)c1F [Example 66, 5-[6-(2,6-Difluoro-3,5-dimethoxyphenyl)-1H-pyrazolo[4,3-c]pyridin-3-yl]-2-(1-methylpiperidin-4-yl)isoindolin-1-one]
< 100 nM | < 100 nM | < 100 nM | COc1cc(OC)c(F)c(-c2ncc3c(-c4ccc5c(c4)CC(C(=O)N4CCN(C)CC4)O5)n[nH]c3n2)c1F (stereo not drawn) [Example 7, 6-(2,6-Difluoro-3,5-dimethoxyphenyl)-3-{2-[(4-methylpiperazin-1-yl)carbonyl]-2,3-dihydro-1-benzofuran-5-yl}-1H-pyrazolo[3,4-d]pyrimidine]
< 100 nM | < 100 nM | < 100 nM | COc1cc(OC)c(F)c(-c2cc3[nH]nc(-c4ccc5c(c4)CN(C(C)CO)C5=O)c3cn2)c1F (stereo not drawn) [Example 63, 5-[6-(2,6-Difluoro-3,5-dimethoxyphenyl)-1H-pyrazolo[4,3-c]pyridin-3-yl]-2-(2-hydroxy-1-methylethyl)isoindolin-1-one]
< 100 nM | < 100 nM | < 100 nM | COc1cc(OC)c(F)c(-c2ncc3c(-c4ccc5c(c4)CN(C4CCN(C)CC4)C5=O)n[nH]c3n2)c1F [Example 79, 5-[6-(2,6-Difluoro-3,5-dimethoxyphenyl)-1H-pyrazolo[3,4-d]pyrimidin-3-yl]-2-(1-methylpiperidin-4-yl)isoindolin-1-one]
< 100 nM | < 100 nM | < 100 nM | CCN1CCc2cc(-c3n[nH]c4nc(-c5c(Cl)c(OC)cc(OC)c5Cl)ncc34)ccc2C1=O [Example 10, 6-[6-(2,6-Dichloro-3,5-dimethoxyphenyl)-1H-pyrazolo[3,4-d]pyrimidin-3-yl]-2-ethyl-3,4-dihydroisoquinolin-1(2H)-one]
< 100 nM | < 100 nM | < 100 nM | COc1cc(OC)c(Cl)c(-c2cc3[nH]nc(-c4cnn(CC(=O)N5CCOCC5)c4)c3cn2)c1Cl [Example 40, 6-(2,6-Dichloro-3,5-dimethoxyphenyl)-3-[1-(2-morpholin-4-yl-2-oxoethyl)-1H-pyrazol-4-yl]-1H-pyrazolo[4,3-c]pyridine]
< 100 nM | < 100 nM | < 100 nM | COc1cc(OC)c(Cl)c(-c2cc3[nH]nc(-c4cnn(CC(=O)N5CC(O)C5)c4)c3cn2)c1Cl [Example 39, 1-({4-[6-(2,6-Dichloro-3,5-dimethoxyphenyl)-1H-pyrazolo[4,3-c]pyridin-3-yl]-1H-pyrazol-1-yl}acetyl)azetidin-3-ol]
< 100 nM | < 100 nM | < 100 nM | COc1cc(OC)c(Cl)c(-c2ncc3c(-c4ccc5c(c4)CCC(C(=O)N(C)C)O5)n[nH]c3n2)c1Cl (stereo not drawn) [Example 2, 6-[6-(2,6-Dichloro-3,5-dimethoxyphenyl)-1H-pyrazolo[3,4-d]pyrimidin-3-yl]-N,N-dimethylchromane-2-carboxamide]
< 100 nM | < 100 nM | < 100 nM | COc1cc(OC)c(F)c(-c2cc3[nH]nc(-c4ccc(N5CCN(C)CC5)nc4)c3cn2)c1F [Example 26, 6-(2,6-Difluoro-3,5-dimethoxyphenyl)-3-[6-(4-methylpiperazin-1-yl)pyridin-3-yl]-1H-pyrazolo[4,3-c]pyridine]
< 100 nM | < 100 nM | < 100 nM | COc1cc(OC)c(Cl)c(-c2cc3[nH]nc(/C=C/c4cnn(C)c4)c3cn2)c1Cl [Example 49, 6-(2,6-Dichloro-3,5-dimethoxyphenyl)-3-[(E)-2-(1-methyl-1H-pyrazol-4-yl)vinyl]-1H-pyrazolo[4,3-c]pyridine]
< 100 nM | < 100 nM | < 100 nM | COc1cc(OC)c(F)c(-c2ncc3c(-c4ccc5nccn5c4)n[nH]c3n2)c1F [Example 93, 6-(2,6-Difluoro-3,5-dimethoxyphenyl)-3-imidazo[1,2-a]pyridin-6-yl-1H-pyrazolo[3,4-d]pyrimidine]
< 100 nM | < 100 nM | < 100 nM | COc1cc(OC)c(Cl)c(-c2cc3[nH]nc(-c4cnn(C(C)C#N)c4)c3cn2)c1Cl (stereo not drawn) [Example 33, 2-{4-[6-(2,6-Dichloro-3,5-dimethoxyphenyl)-1H-pyrazolo[4,3-c]pyridin-3-yl]-1H-pyrazol-1-yl}propanenitrile]
< 100 nM | < 100 nM | < 100 nM | COc1cc(OC)c(F)c(-c2ncc3c(-c4ccc5c(c4)CN(C(C)CO)C5=O)n[nH]c3n2)c1F (stereo not drawn) [Example 81, 5-[6-(2,6-Difluoro-3,5-dimethoxyphenyl)-1H-pyrazolo[3,4-d]pyrimidin-3-yl]-2-(2-hydroxy-1-methylethyl)isoindolin-1-one]
< 100 nM | < 100 nM | < 100 nM | COc1cc(OC)c(F)c(-c2cc3[nH]nc(-c4ccc5c(c4)CN([C@H]4CC[C@@H](O)CC4)C5=O)c3cn2)c1F [Example 61, 5-[6-(2,6-Difluoro-3,5-dimethoxyphenyl)-1H-pyrazolo[4,3-c]pyridin-3-yl]-2-(cis-4-hydroxycyclohexyl)isoindolin-1-one]
< 100 nM | < 100 nM | < 100 nM | COc1cc(OC)c(Cl)c(-c2ncc3c(-c4ccc5c(c4)CN(C4CC4)C5=O)n[nH]c3n2)c1Cl [Example 74, 2-Cyclopropyl-5-[6-(2,6-dichloro-3,5-dimethoxyphenyl)-1H-pyrazolo[3,4-d]pyrimidin-3-yl]isoindolin-1-one]
< 100 nM | < 100 nM | < 100 nM | COc1cc(OC)c(Cl)c(-c2ncc3c(-c4cnn(C(C)C#N)c4)n[nH]c3n2)c1Cl (stereo not drawn) [Example 73, 2-{4-[6-(2,6-Dichloro-3,5-dimethoxyphenyl)-1H-pyrazolo[3,4-d]pyrimidin-3-yl]-1H-pyrazol-1-yl}propanenitrile]
< 100 nM | < 100 nM | < 100 nM | COc1cc(OC)c(F)c(-c2ncc3c(-c4ccc5c(c4)CCNC5=O)n[nH]c3n2)c1F [Example 12, 6-[6-(2,6-Difluoro-3,5-dimethoxyphenyl)-1H-pyrazolo[3,4-d]pyrimidin-3-yl]-3,4-dihydroisoquinolin-1(2H)-one]
